What was measured:
[1] = tested on: Human Colon Carcinoma HCT116 xenograft; experiment: In vivo human colon carcinoma HCT116 xenograft test; parameters: species or system BALB/cASlac-nu mice
Experimental: (E)-3-(2-Chlorophenyl)-1-(2-hydroxy-4,6-dimethoxy-3-(1,2,3,6-tetrahydropyridine-4-yl)phenyl)-2-propylene-1-one hydrochloride, B2, was dissolved in a pyrogen-free, sterile PBS solution containing 1% dimethyl sulfoxide (DMSO). For daily injections, a freshly prepared solution was stored at 4° C. Before injection the B2 solution was warmed up to 37° C. and vigorously agitated in a vortex. B2 was administered through intraperitoneal injection (i.p.), 2.5, or 7.5 mg/kg/d, 20 days.
The positive control animals received 5 mg/kg/d doxorubicin intraperitoneally (i.p.), and the blank group mice received PBS solution containing 1% DMSO i.p., 5 mL/kg/d.
Female BALB/cASlac-nu mice (SLAC LABORATORY ANIMAL, Shanghai), ages 4 to 5 weeks, were used in this procedure. Animals were maintained according to the guidelines established by the National Institutes of Health.
The Human Colon Carcinoma HCT116 were grown in RPMI-1640 medium with 10% fetal calf serum and L-glutamine, and the cells were maintained using standard tissue culture conditions.
For the production of s.c. tumors, 1×10^7 cells in 0.1 mL of medium without serum were inoculated in the right flank of mice. After the tumors were implanted and reached a palpable size, the mice were randomized into control and treatment groups (n=6)
Subcutaneous tumors were measured with caliper, and the weight of the animals recorded at least three times a week. Tumor volume was estimated from caliper measurements of two perpendicular dimensions of the tumor in millimeters using the formula:
Tumor Volume(mm^3)=length(mm)×width(mm)^2/2
Tumor Inhibition Ratio (%)=(the blank group tumor weight average−the treatment group tumor weight average)/the blank group tumor weight average×100
Relative Tumor Volume (RTV)=Vt/V0. V0: the tumor volume measured at the time of randomization; Vt: the tumor volume measured each time during the administration.
Relative Increment Ratio T/C (%)=the treatment group(T) RTV/the blank control group(C) RTV×100. T/C(%)>40: inefficacy; T/C(%)≦40, and P<0.05: utility.

HCT116 cells = experiment: MTT cytotoxicity screening, human colon cancer cell line HCT116; type: cell-based; settings: Homo sapiens, HCT-116, 48 hrs incubation, absorbance 490 nm, primary screening, read-out: IC50
How it was run: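 HCT116 cells seeded at 2.5×10^4 cells/ml, treated 24 h later for 48 h with compounds in medium (final DMSO 0.1%-0.001% v/v); dose series 100 μM–1 μM or 10 μM–62.5 nM, primary screen at 100 and 10 μM. Viability read by MTT (4 h, 37° C), formazan dissolved in DMSO, absorbance 490 nm.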

COc1cc(OC)c(C2=CCNCC2)c(O)c1C(=O)/C=C/c1ccccc1Cl [Compound B2, (E)-3-(2-chlorophenyl)-1-(2-hydroxy-4,6-dimethoxy-3-(1,2,3,6-tetrahydropyridine-4-yl)phenyl)-2-propylene-1-one] was tested, and the “% inhibit. (tumor inhibition ratio by tumor weight)” value ([1]; 2.5 mg/kg/d × 20 d i.p.) was 88.2%, the “RTV (relative tumor volume Vt/V0)” value ([1]; 2.5 mg/kg/d × 20 d i.p.) was 2.86 ± 0.202 and the “TIV (%)” value ([1]; 2.5 mg/kg/d × 20 d i.p.) was 19.0%. For the same molecule, the “Tumor wgt.” value ([1]; 2.5 mg/kg/d × 20 d i.p.) was 0.041 ± 0.0093 g, the “Tumor vol. (mm^3) Final” value ([1]; 2.5 mg/kg/d × 20 d i.p.) was 121 ± 78.2 mm^3 and the “Tumor vol. (mm^3) Initial” value ([1]; 2.5 mg/kg/d × 20 d i.p.) was 53 ± 28.0 mm^3. The “% inhibit. (tumor inhibition ratio by tumor weight)” value ([1]; 7.5 mg/kg/d × 20 d i.p.) was −25.6%, the “RTV (relative tumor volume Vt/V0)” value ([1]; 7.5 mg/kg/d × 20 d i.p.) was 12.57 ± 0.667 and the “TIV (%)” value ([1]; 7.5 mg/kg/d × 20 d i.p.) was 83.3%. For the same molecule, the “Tumor wgt.” value ([1]; 7.5 mg/kg/d × 20 d i.p.) was 0.437 ± 0.3105 g, the “Tumor vol. (mm^3) Final” value ([1]; 7.5 mg/kg/d × 20 d i.p.) was 777 ± 459.5 mm^3 and the “Tumor vol. (mm^3) Initial” value ([1]; 7.5 mg/kg/d × 20 d i.p.) was 58 ± 39.7 mm^3. For the same molecule, the “optimal T/C (relative increment ratio)” value ([1]; HCT116 xenografts, dosage of 2.5 mg/kg/day) was 19.0%, the “toxicity during the administration” value ([1]; two B2 treatment groups, 2.5 or 7.5 mg/kg/d i.p., 20 days) was “no significant toxicity was found” and the IC50 (HCT116 cells) was 100 nM.

From patent US20120121692A1, “COMPOUNDS AND COMPOSITIONS COMPRISING CDK INHIBITORS AND METHODS FOR TREATING CANCER” (SHANDONG UNIVERSITY, priority 2009, published 2012)
